The test system of series [1] is male diabetic db/db mice. Briefly: Diabetic nephropathy study in db/db mice (serum/urine parameters, renal histology). Format: in vivo. Particulars: for glomerular mesangial matrix expansion (histology) / tubulointerstitial fibrosis (histology): compared with diabetic vehicle; for effects on fasted or post-prandial glucose levels: db/db mice, 12 weeks treatment, linagliptin 3 mg/kg/day, enalapril 20 mg/kg/day. Here is the method:
(§1) Diabetic nephropathy is the main cause of end-stage renal disease. […] Heterozygous db/+ mice treated with vehicle were used as controls (n=8). Levels of glucose, triglycerides, insulin, cystatin C and creatinine were analysed in serum and urine samples at baseline and monthly thereafter. Body weight, urinary albumin excretion and OGTT were monitored periodically.
(§2) Renal histology (glomerulosclerosis, tubulointerstitial fibrosis) and expression of the sialoglycoprotein podocalyxin (a marker of podocyte integrity in the glomeruli, marker for glomerular damage), glucagon-like peptide 1 receptor (GLP-1R), alpha-smooth muscle actin and type I collagen were evaluated at the end of the study.

The subject of series [2] is podocalyxin. The series can be described thus: Podocalyxin immunohistochemistry of kidney sections (podocyte integrity) in db/db mice. Format: in vivo. Conditions: 12 weeks, semi-quantitative score 0-3, p<0.05 vs diabetic mice. As to the method:
The expression of podocalyxin is analysed by immunohistochemistry using a podocalyxin specific antibody. Kidney sections from male diabetic db/db mice (10 weeks old at start and treated for 3 months) in the following groups are analysed:
All of the evaluations of the glomerular staining intensities are done semi-quantitatively by two different experts of kidney pathology blinded for the slides.
The predefined scoring gradient is 0, 1, 2, and 3.0 means no expression, whereas 3 is given when expression is highest. Group means are compared with a non-parametric test. P values less than 0.05 are considered significant.
as §1, §2

Series [3] relates to glucagon-like peptide 1 receptor (GLP-1R). The series can be described thus: GLP-1R immunohistochemical staining of kidney sections in db/db mice. Type of series: in vivo. Conditions: P<0.05 vs vehicle-treated db/db mice. Here is the method:
as §1, §2

A short description of series [4]: Pooled analysis of four 24-week placebo-controlled trials: albuminuria in T2D patients with early diabetic nephropathy on stable ACE/ARB (set 1). Format: in vivo, human. Conditions: 5 mg qd, 24 weeks. An excerpt:
Despite optimal therapy, people with type 2 diabetes (T2D) remain at high risk for kidney damage, manifest as abuminuria, and many develop progressive renal failure. Further, despite optimal therapy with inhibitors of the renin-angiotensin-aldosterone system (RAAS), patients with type 2 diabetes mellitus (T2DM) remain at an increased risk of progressive renal failure and cardiovascular disease, for which abuminuria has emerged as a predictive biomarker. […] Participants were included in this analysis if they had: i) 30≦UACR≦3000 mg/g creatinine; ii) stable treatment with ACE/ARBs ≧4 weeks prior and during the trial; and iii) eGFR >30 ml/min/1.73 m^2. The endpoint was the percentage change in geometric mean UACR. […] After 24 weeks, placebo-corrected changes in A1C and FPG were −0.71% and −26 mg/dl, respectively (both p<0.0001). […] This protective effect may be independent of race.
(§3) The endpoint in both sets was the percentage change in geometric mean UACR after 24 weeks.

Series [5] can be described thus: Pooled analysis of seven placebo-controlled trials: albuminuria in elderly T2D patients with diabetic nephropathy (set 2). Conditions: 5 mg q.d., 24 weeks, set 2, aged ≧65 years. Format: in vivo, human.
Source text: as §3

Series [6] is described as follows: Meta-analysis of renal safety/outcomes in 13 phase 3 placebo-controlled trials, 5466 T2D patients.
Source text: The aim of this study was to evaluate renal safety/outcomes with linagliptin in phase 3, randomized, double-blind, placebo-controlled trials (≧12 wks).
For series [7] the following is noted: for feτ, s: steady state (Day 12), gMean.
The mark [8] stands for this setting: linagliptin compared with enalapril, p<0.05.

Molecules are shown by their SMILES. Where two headings read alike, the source gives them in different places. Where only a bound is given, the exact number is not on record here.

The record followed here is US20160089373A1, “CARDIO- AND RENOPROTECTIVE ANTIDIABETIC THERAPY” (Boehringer Ingelheim International GmbH, priority 2013, published 2016).

`CC#CCn1c(N2CCC[C@@H](N)C2)nc2c1c(=O)n(Cc1nc(C)c3ccccc3n1)c(=O)n2C` [linagliptin]: in series [1] (p<0.05), the “glomerular mesangial matrix expansion (histology)” value is listed as “reduced almost to control levels”. Further, the “tubulointerstitial fibrosis (histology)” value in series [1] (p<0.05) was “reduced almost to control levels”. Moreover, in series [1], the “effects on fasted or post-prandial glucose levels” value is “limited effects”. In addition, the tubulointerstitial fibrosis result in series [1] (setting [8]) was “significantly decreased”. For the same compound, the “urinary albumin excretion rates” value in series [1] (setting [8]) was “significantly decreased”. The “podocalyxin expression (glomerular staining score)” value in series [2] amounted to 2.3±0.2. For the same compound, the “expression of GLP-1R in the glomeruli” value in series [3] was 1.90±0.04. For the same compound, the “UACR between group difference vs placebo” value in series [4] (set 1) is −29%. Also, the “lowering of adjusted UACR (percentage change in geometric mean)” value in series [4] (set 1, on stable ACE/ARB) is listed as 33%. For the same compound, the “UACR reduction versus placebo (trend)” value in series [5] was −25%. Also, the “patients with composite renal endpoint events” value in series [6] (linagliptin 5 mg qd, n=3505) is on record as 12.8%. Also, the “patients with composite renal endpoint events (number)” value in series [6] (linagliptin 5 mg qd, n=3505) amounted to 448. In addition, the entries for the “HR for the composite endpoint vs placebo” value in series [6] (patients <65 yrs) and in series [6] (patients >65 yrs) were 0.77 and 1.04, respectively. The “feτ, s” value in series [7] (1 mg once daily oral) turned out to be 3.34%; in series [7] (2.5 mg once daily oral), 3.06%; in series [7] (5 mg once daily oral), 6.27%; in series [7] (10 mg once daily oral) it was 3.22%. Also, the route of excretion result in series [7] (human, in vivo) was “primarily excreted unchanged via the bile”. Also, the “excreted via the kidney” value in series [7] (therapeutic oral dose levels, of the administered oral dose) is reported as under 7%.

On to `CCOC(=O)[C@H](CCc1ccccc1)N[C@@H](C)C(=O)N1CCC[C@H]1C(=O)O` [enalapril, reference compound], for which, in series [1] (p<0.05), the “glomerular mesangial matrix expansion (histology)” value is given as “reduced almost to control levels” and the “tubulointerstitial fibrosis (histology)” value is “reduced almost to control levels”. In addition, the “effects on fasted or post-prandial glucose levels” value in series [1] is “limited effects”. Further, the “podocalyxin expression (glomerular staining score)” value in series [2] came out at 2.4±0.2.
